Experimental data as given in patent US7582424B2 (priority 2000, dated 2009).

What was measured:
cGMP = assay type: cell-based
T84 cell monolayers = assay type: cell-based, human
[1] = system: Ace-induced Isc response by T84 cell monolayers; experiment: cells; assay type: cell-based, human
[2] = system: ACE-stimulated Isc in 16HBE14o- cell monolayers; assay type: cell-based, human
polarized T84 cells = conditions: cited from earlier work
chloride secretion = conditions: cited from earlier work
cAMP = assay type: cell-based

C=C[C@@]1(C)CC(=O)[C@]2(O)[C@@]3(C)[C@@H](O)CCC(C)(C)[C@@H]3[C@H](O)[C@H](OC(C)=O)[C@@]2(C)O1 [forskolin]
effect on cellular cGMP (cGMP): no effect | mean peak Isc, forskolin followed by carbachol (T84 cell monolayers): 69.3±2.4 μAmps/cm^2 | predicted additive effect, forskolin and carbachol, mean peak Isc (T84 cell monolayers): 49.0±2.9

CC(=O)OCOC(=O)CN(CC(=O)OCOC(C)=O)c1ccccc1OCCOc1ccccc1N(CC(=O)OCOC(C)=O)CC(=O)OCOC(C)=O [BAPTA, 1,2-bis(2-aminophenoxy)ethane-N,N,N′,N′-tetraacetic acid (BAPTA)-AM]
effect on Ace-induced Isc [1]: near ablation

NPPB
decrease in ACE-stimulated Isc [2]: ~80%

O=S(=O)(O)c1cc(N=C=S)ccc1C=Cc1ccc(N=C=S)cc1S(=O)(=O)O.[Na] [DIDS, 4,4′-diisothiocyanostilbene-2,2′-disulfonic acid, sodium]
inhibition of forskolin-induced Isc response (polarized T84 cells): 40% | inhibition of thapsigargin-induced Isc response (polarized T84 cells): 100% | inhibition at 500 µM ([1]; Homo sapiens, T84, read-out: inhibition of the Ace-induced Isc response): 50% | decrease in ACE-stimulated Isc [2]: 40%

C/C=C(/C)C(=O)O[C@H]1C(C)=C2[C@H]([C@@H]1OC(=O)CCCCCCC)[C@@](C)(OC(C)=O)C[C@H](OC(=O)CCC)[C@@]1(O)[C@H]2OC(=O)[C@@]1(C)O [thapsigargin]
mean peak Isc, agent alone (T84 cell monolayers): 10.2±4.3

Clc1ccccc1C(c1ccccc1)(c1ccccc1)n1ccnc1 [clotrimazole]
reduction in Ace-stimulated Isc [1]: 92% | inhibition of carbachol-dependent secretion (chloride secretion): 84%

O=c1c(-c2ccc(O)cc2)coc2cc(O)cc(O)c12 [genistein]
effect on the Isc response to Ace [1]: no effect

COc1ccc(CCN(C)CCCC(C#N)(c2ccc(OC)c(OC)c2)C(C)C)cc1OC (centres unmarked) [verapamil]
effect on Ace-induced Isc response [1]: no significant effect

CCCCNc1cc(C(=O)O)cc(S(N)(=O)=O)c1Oc1ccccc1 [bumetanide]
effect on Ace action when added after Ace [1]: reverses | inhibition at 100 µM ([1]; Homo sapiens, T84, read-out: inhibition of the action of Ace (Isc)): ~60% | effect by itself on Isc or PD (T84 cell monolayers): no effect

C[N+](C)(C)CCOC(N)=O [carbachol]
effect on cellular cGMP (cGMP): no significant effect | effect on cellular cAMP (cAMP): no significant effect | effect of carbachol pretreatment on thapsigargin-induced chloride secretion (Isc response) (T84 cell monolayers): blocks | peak Isc, agent alone (T84 cell monolayers): 9.8±1.1 μAmp/cm^2 | return of Isc nearly to baseline (T84 cell monolayers): ≤ 10 min | time of peak Isc, agent alone (T84 cell monolayers): 4 min

ω-conotoxin
effect on Ace-induced Isc response [1]: no significant effect

C[C@@H]1O[C@@H](O[C@H]2C[C@@H](O)[C@]3(CO)[C@H]4[C@H](O)C[C@]5(C)[C@@H](C6=CC(=O)OC6)CC[C@]5(O)[C@@H]4CC[C@]3(O)C2)[C@H](O)[C@H](O)[C@H]1O [ouabain]
effect on Ace-induced Isc [1]: inhibits and reverses

O=C1CN(/N=C/c2ccc(-c3ccc([N+](=O)[O-])cc3)o2)C(O)=N1 [dantrolene]
inhibition at 50 µM ([1]; Homo sapiens, T84, read-out: inhibition of Ace-induced Isc response): ~70%
